Experimental data taken from patent US20250324965A1, “Indicator Clearance Monitoring in Machine Perfusion of an Organ” (The Medical College of Wisconsin, Inc., priority 2021, published 2025).
“Also recorded” adds a separate entry of the source.

Experiments:
[1] = normal rats; ICG 10 μg/kg, sodium fluorescein 2 mg/kg; cited from earlier work
[2] = normal value; cited from earlier work
Mrp2, Mrp3, and Mrp4 = settings: daily gavage for 4 days consecutively; normal mouse liver (without IRI); cited from earlier work
[3] = Sodium fluorescein clearance kinetics in blood and bile in the in vivo rat hepatic IRI model; design: species or system Sprague-Dawley rats
Description: Male 7- to 8-wk-old Sprague-Dawley rats (median body weight of 243 g, interquartile range of 228-260 g, Charles River Laboratories) were housed in an animal facility accredited by the Association for Assessment and Accreditation of Laboratory Animal Care. The rats were fed Purina Lab Diet 5001 and reverse osmosis water ad libitum. All animals received humane care in accordance with the National Institutes of Health Guide for the Care and Use of Laboratory Animals. Only male rats were used in these experiments because multidrug resistance-associated protein 2 (MRP2), which is responsible for fluorescein excretion from the hepatocyte, is impaired by estradiol glucuronide. All experiments were approved by the Institutional Animal Care and Use Committee at the Medical College of Wisconsin (animal use Application No. 00004857).
We evaluated the effect of hepatic IRI on sodium fluorescein clearance by applying different warm ischemia times (WITs; 0 min, 30 min, or 60 min) and reperfusion times (1 h or 4 h). Thus, there were five experimental groups (n=5 each) based on ischemia and reperfusion times: no ischemia (control), brief ischemia (30 min) followed by 1 h of reperfusion, prolonged ischemia (60 min) followed by 1 h of reperfusion, brief ischemia (30 min) followed by 4 h of reperfusion, and prolonged ischemia (60 min) followed by 4 h of reperfusion (FIG. 32A).
Surgery was performed under isoflurane inhalation anesthesia (1%-3%; oxygen flow 1 L/min). Animals were placed on a warming pad set to obtain a temperature of around 39° C. (Far Infrared Warming Pad, Kent Scientific, Torrington, CT). A transverse abdominal incision was made, and the pedicles to the median and lateral lobes of the liver (˜70% of the volume of the liver) were temporarily occluded using a small vascular clamp (FE011K, Aesculap, Melsungen, Germany). This approach has been utilized for testing the effect of hepatic IRI on biliary excretion of fluorescein. During the designated time period for hepatic IRI, the abdominal wall was temporarily closed to prevent dehydration and heat loss.
For injection and sampling, blood vessels and the bile duct were cannulated as follows: a midline incision was made on the neck, and 8- to 10-cm polyethylene tubes were cannulated to the right jugular vein (0.58 mm inner diameter (ID)×0.97 mm outer diameter (OD); PE50, Braintree Scientific, Braintree, MA) and right carotid artery (0.28 mm ID×0.61 mm OD; PE10, Braintree Scientific, Braintree, MA). The polyethylene tubes in the vessels were attached to a 30-gauge blunt needle (SAI Infusion Technologies, Lake Villa, IL) and filled with 20 U/mL heparin in 0.9% saline. Another polyethylene tube (0.28 mm ID×0.61 mm OD; PE10, Braintree Scientific, Braintree, MA) was cannulated into the bile duct for bile sampling (FIG. 33B). The cannulation procedure was performed under a surgical microscope (Amscope, Irvine, CA).
Blood and bile were collected at eight time points over 60 min (0, 2, 5, 10, 20, 30, 45, and 60 min). At each time point, 180 μL of blood was collected by a heparin-coated syringe from the polyethylene tubing in the left carotid artery and mixed with 20 μL of heparin solution (10,000 U/mL). Of this 200-μL blood sample, 20 μL was used for whole blood analysis. The remaining 180 μL was centrifuged (3,000 rpm for 10 min), and 20 μL of supernatant was collected for plasma sample analysis. Likewise, 30 μL of bile was collected from the polyethylene tubing in the bile duct at each time point.
Once the baseline (0 min) samples were collected, sodium fluorescein (Sigma-Aldrich, St. […]
The blood, plasma, and bile samples (20 μL each) were placed in a 384-well plate (Greiner Bio-one, Monroe, NC) and covered with plastic film to minimize evaporation. The fluorescence intensity was measured in the samples using a microplate reader (CLARIOstar, BMG Labtech, Ortenberg, Germany), with the excitation set at 478 nm and emission light collected within the 505-552-nm spectral range. […]

[4] = Fluorescein clearance (bile-to-perfusate fluorescence) in ex vivo rat liver machine perfusion; settings: WIT varied, CIT constant at 3 hours
Description: This Example presents data obtained using ex vivo rat liver tissue in a perfusion machine system and provides further evidence supporting the usefulness of such measurements as a way to assess transplant tissue health and quality. With liver transplant there are two ischemia times: warm ischemia time (WIT) which is the time from tissue removal from the donor until cold fluid perfusion into the liver tissue; after cold perfusion, the remaining ischemia is termed cold ischemia time (CIT), which is slower. Most liver tissue can tolerate up to 30 min. of WIT whereas CIT can be tolerated for up to 12 hours. A certain amount of WIT and CIT cannot be prevented since some time is always required at each stage, nevertheless the goal is to minimize WIT.
In the experiments of FIG. 39, the WIT was varied while keeping the CIT constant at 3 hours. After this regimen, the fluorescein clearance was tested and the ratio of fluorescein in bile relative to the amount in perfusate was determined at various times.

[5] = cited from earlier work
[6] = severe hepatic IRI (WIT=60 min) vs control and mild IRI groups, 2 mg/kg i.v.

Row | Compound | time to reach a steady state [1] | ICG retention ratio after 15 min (ICGR15) [2] | plasma disappearance rate (ICGPDR) [2] | induction of Mrp2, Mrp3, and Mrp4 (Mrp2, Mrp3, and Mrp4) | bile-to-plasma fluorescence ratios across warm ischemia time (WIT) groups ([3]; 2 mg/kg i.v., WIT 0, 30, 60 min, 1 h or 4 h reperfusion) | bile-to-plasma (or bile-to-whole blood) fluorescence ratios in the 60-min WIT group ([3]; 2 mg/kg i.v., vs control or 30-min WIT groups) | excretion of fluorescein measured by fluorescence in bile samples ([3]; IRI vs control, intravenous infusion, preliminary in vivo rat experiment (FIG. 4)) | significant clearance of fluorescein from blood into bile ([3]; i.v. bolus 2 mg/kg) | delay of clearance from blood into bile ([3]; i.v. dose of 10 mg/kg) | hepatic clearance of fluorescein ([3]; in hepatic IRI) | fluorescence intensities in bile [3, 6] | fluorescence intensities in whole blood and plasma [3, 6] | area under the curve (AUC) of bile-to-perfusate fluorescence intensity [4] | time course of bile-to-perfusate fluorescence intensity values (excretion of fluorescein) [4] | time to equilibrium of fluorescence intensity in hepatocytes and bile ([5]; after dye injection) | time in which metabolism by the liver through membrane transporters and excretion into bile occurs ([5]; healthy liver) | time to clearance from the blood into the bile ([5]; intravenous administration, normal livers)
1 | CC1(C)C(/C=C/C=C/C=C/C=C2\N(CCCCS(=O)(=O)O)c3ccc4ccccc4c3C2(C)C)=[N+](CCCCS(=O)(=O)[O-])c2ccc3ccccc3c21 [ICG, Indocyanine green] | < 30 min | < 10% | over 18 %/min |  |  |  |  |  |  |  |  |  |  |  |  |  | 
2 | Cc1c(-c2cnccn2)ssc1=S [oltipraz] |  |  |  | induced |  |  |  |  |  |  |  |  |  |  |  |  | 
3 | O=C1OC2(c3ccc(O)cc3Oc3cc(O)ccc32)c2ccccc21 [sodium fluorescein] | < 10 min |  |  |  | inverse correlation with WIT; also recorded: stepwise decrease | distinctly lower | noticeably compromised | observed immediately | over 1 h | suppressed | lower | elevated | inversely correlated with WIT | compromised excretion | ≤ 5 min | ≤ 15 min | ≤ 5 min
